{
  "source": "patent US7855232B2",
  "about": "“Organoselenium compound for cancer chemoprevention” (LKT Laboratories, Inc., priority 2001, dated 2010)",
  "test_system": "UDP-Glucuronosyltransferase (UDP-GT)",
  "assay": "UDP-glucuronosyltransferase (UDP-GT) activity in liver microsomes of treated mice, o-aminophenol substrate",
  "format": "in vivo, Female A/J mice",
  "details": "for Ratio Test/con (UDP-GT): gavage; for UDP-GT activity (column head prints GSH conc.): gavage in corn oil",
  "protocol": "Microsomal samples were assayed for enzymatic conjugation by modifying the procedure of Zakim et al., Methods of Biochemical Analysis, ed. David Glick, 21:1-37, (1973). using o-aminophenol as the substrate. The complete assay solution contains, in a total volume of 500 μl, 0.25 M phosphate buffer (pH 7.6), 0.002 M o-aminophenol, 0.05 M UDPGA, 0.125 M magnesium chloride and 100 μl microsomes. The mixture was incubated for 30 minutes. Reactions were stopped by the addition of 500 μl of TCA-sodium phosphate reagent. The precipitated protein was removed, 100 μl of 0.05% sodium nitrite was added to 950 μl of the supernatent solution and allowed to stand for 5 minutes. 100 μl of 0.5% ammonium sulfamate was added, after 5 minutes. 100 μl of 0.12% N-(-1-naphthyl)ethylenediamine dihydrochloride was added and incubated for 2 hours in the dark; and the difference in the optical density between the blanks and the samples were recorded at 555 nm in a Beckman model DU65 UV-VIS spectrophotometer. The UDP-GT activity was calculated using the extinction coefficient 29 mM-1 cm-1 for the coupled product.",
  "note": "Marks after values point to notes of the source that are not given here.",
  "data": [
    {"compound": "N#C[Se]Cc1ccc(C[Se]C#N)s1", "note": "[(2) TDMSC, thienyl-2,5-di-methylene selenocyanate]", "values": [
      {"measurement": "Ratio Test/con (UDP-GT)", "setting": "dose 0.02 mmol/Kg body weight", "result": 1.58},
      {"measurement": "UDP-GT activity (column head prints GSH conc.)", "setting": "dose 0.02 mmol/Kg body weight", "result": "7.00 ± 1.07 ^c nmol/min/mg protein"},
      {"measurement": "Ratio Test/con (UDP-GT)", "setting": "dose 0.04 mmol/Kg body weight", "result": 2.81},
      {"measurement": "UDP-GT activity (column head prints GSH conc.)", "setting": "dose 0.04 mmol/Kg body weight", "result": "12.44 ± 2.31 ^c nmol/min/mg protein"},
      {"measurement": "Ratio Test/con (UDP-GT)", "setting": "dose 0.04 mmol/Kg body weight, listed as TDMSC 2", "result": 3.0}
    ]}
  ]
}
